The values below come from patent EP4592286A1, “MACROCYCLIC NITROGEN-CONTAINING CROWN ETHER COMPOUND AND USE THEREOF AS PROTEIN KINASE INHIBITOR” (Artivila Biopharma, priority 2022, dated 2024).

As a reminder, the inhibition is the percentage by which the read-out fell short of the control. By solubility is commonly meant the dissolved amount per volume that the medium holds. A lower solubility goes with little dissolved substance. The term IC50 denotes the midpoint of a concentration-inhibition curve. Read a high IC50 as lower potency.

Data set [1] addresses CDK9 (Homo sapiens, UniProt P50750). Kind of data set: experiment of inhibiting kinase activity (Caliper mobility shift assay), CDK9. The settings on record: at 100 nM; read-out: inhibition rate CDK9. The format is biochemical. Here is the method:
(§1) The inhibition rates of tested compounds on JAK1, JAK2, JAK3, TYK2, CDK7, CDK9, EGFR (T790M) and LRRK2 kinases were measured. The test concentrations of the compounds were 10 nM and 100 nM, and the detection was performed by replicate wells. Alternatively, compounds were 3-fold serial diluted from 10 µM for 10 concentrations in replicate wells.
The inhibitory effects of the compounds on JAK1, JAK2, JAK3, CDK7 and CDK9 kinases were detected by the method of Caliper mobility shift assay. 250 nL of the compound at 100-fold final concentration was transferred to a destination plate 384-well-plate by using a liquid handler Echo 550. A kinase solution at 2.5-fold final concentration was prepared with 1×kinase buffer. 10 µL of the kinase solution with 2.5-fold final concentration was added to compound wells and positive control wells; and 10 µL of 1×kinase buffer was added to negative control wells. The mixture was centrifuged at 1000 rpm for 30 seconds and then incubated at room temperature for 10 minutes. A mixed solution of ATP and kinase substrate at 5/3-fold final concentration was prepared with 1×kinase buffer, and 15 µL of the mixed solution of ATP and substrate at 5/3-fold final concentration was added to start the reaction. The 384-well plate was centrifuged at 1000 rpm for 30 seconds, shaked and mixed evenly, then incubated at room temperature for a corresponding time. 30 µL of stop solution was added to stop the kinase reaction, the mixture was centrifuged at 1000 rpm for 30 seconds, and shaked and mixed evenly. The conversion rate was read by Caliper EZ Reader. The conversion inhibition rate%=(average positive control conversion rate%-sample conversion rate%)/(average positive control conversion rate%-average negative control conversion rate%). Where negative control wells represent the conversion readings of the background well of kinase buffer; and positive control wells represent the conversion readings of wells without compound inhibition. With the log value of concentration as the x axis and the percentage inhibition rate as the y axis, the dose-response curve was fitted by the log (inhibitor) vs. response-variable slope of the analyzing softwar GraphPad Prism 5, and the IC50 values of each compound on enzyme activity were obtained. Calculation formula is as follows: y=Bottom+(Top-Bottom)/(1+10^((LogIC50-x)×hillslope)), where x is logarithm of inhibitor concentration; and Y is % inhibition rate.

Data set [2] concerns the target CDK7 (Homo sapiens, UniProt P50613). Kind of data set: experiment of inhibiting kinase activity (Caliper mobility shift assay), CDK7. Format: biochemical. Particulars: read-out: inhibition rate CDK7. In short, it runs like this:
(§2)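 Read-out was Caliper mobility shift of substrate conversion, normalized to no-inhibitor and buffer-only wells, with IC50 from a variable-slope log(inhibitor) curve. Enzyme was exposed to compound (10-point 3-fold series from 10 µM, or single 10/100 nM) 10 min at room temperature before ATP/substrate addition.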

The target in data set [3] is T1, JAK3 (Homo sapiens, UniProt P52333).
T1 sequence (P52333 1-1124): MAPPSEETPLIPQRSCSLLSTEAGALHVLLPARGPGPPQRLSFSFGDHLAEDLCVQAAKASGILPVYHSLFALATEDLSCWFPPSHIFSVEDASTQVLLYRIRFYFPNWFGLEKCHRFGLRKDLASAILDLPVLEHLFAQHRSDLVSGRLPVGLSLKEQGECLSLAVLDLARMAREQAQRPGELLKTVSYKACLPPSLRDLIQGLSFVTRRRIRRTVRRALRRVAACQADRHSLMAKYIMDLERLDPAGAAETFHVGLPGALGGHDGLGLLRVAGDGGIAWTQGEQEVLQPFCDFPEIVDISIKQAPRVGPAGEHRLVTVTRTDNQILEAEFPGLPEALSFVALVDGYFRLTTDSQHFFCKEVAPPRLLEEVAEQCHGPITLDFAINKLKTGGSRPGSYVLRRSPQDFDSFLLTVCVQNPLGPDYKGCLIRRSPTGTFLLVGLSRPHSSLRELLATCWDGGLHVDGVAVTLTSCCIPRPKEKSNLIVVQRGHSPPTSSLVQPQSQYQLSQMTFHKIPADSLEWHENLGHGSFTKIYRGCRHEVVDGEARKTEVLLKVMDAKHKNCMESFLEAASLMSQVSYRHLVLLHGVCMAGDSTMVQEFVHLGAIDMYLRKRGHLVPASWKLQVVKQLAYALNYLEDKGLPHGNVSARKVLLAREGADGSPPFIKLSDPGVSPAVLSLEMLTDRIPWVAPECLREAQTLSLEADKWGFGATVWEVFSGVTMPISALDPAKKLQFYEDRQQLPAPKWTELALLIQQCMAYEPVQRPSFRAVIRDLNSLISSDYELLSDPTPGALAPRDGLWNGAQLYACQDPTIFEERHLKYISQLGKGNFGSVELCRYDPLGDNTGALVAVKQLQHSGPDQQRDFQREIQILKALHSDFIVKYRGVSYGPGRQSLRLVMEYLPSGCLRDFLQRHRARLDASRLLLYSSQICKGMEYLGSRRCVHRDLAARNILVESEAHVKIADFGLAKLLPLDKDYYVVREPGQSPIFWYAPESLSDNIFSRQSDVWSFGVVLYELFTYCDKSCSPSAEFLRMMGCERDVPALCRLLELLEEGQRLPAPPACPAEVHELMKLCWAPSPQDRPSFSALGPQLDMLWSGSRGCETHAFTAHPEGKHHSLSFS
Kind of data set: experiment of inhibiting kinase activity (Caliper mobility shift assay), JAK3. Format: biochemical. The settings on record: read-out: inhibition rate JAK3; for inhibition at 0.01 µM: at 10 nM. In short, it runs like this: as §2

The nature of data set [4]: measurement of the solubility of compounds in water and diluted hydrochloric acid. The format is physicochemical. The settings on record: thermodynamic from solid; for solubility at 1 h: simulated gastric fluid, diluted hydrochloric acid solution A (pH-1.5), room temperature; for solubility: ultrapure water (pH-6), room temperature overnight. The procedure: Example 117: measurement of the solubility of compounds in water and diluted hydrochloric acid
The compounds were dissolved in acetonitrile (LCMS pure) and prepared into standard samples having the concentration gradient of 1000 µg/mL, 500 µg/mL, 250 µg/mL, 125 µg/mL, 62.5 µg/mL, and 31.25 µg/mL.
About 1.0 mg of the powder of the compound to be tested was weighed and added to 0.3 mL of ultrapure water (pH-6), the resulting mixture was shaked thoroughly at room temperature overnight and centrifuged, and the supernatant was taken and diluted 10 times with acetonitrile. The sample was analyzed after mixing evenly.
153.8 µL of 6 M HCl was pipetted, 20 mL of water was added, and mixed evenly to prepare diluted hydrochloric acid solution A (pH-1.5). About 1.0 mg of the powder of the compound to be tested was weighed and added to 0.3 mL of diluted hydrochloric acid solution A, the resulting mixture was shaked thoroughly at room temperature for 1 hour and centrifuged, and the supernatant was taken and diluted 10 times with acetonitrile. The sample was analyzed after mixing evenly.
The standard sample and the sample to be tested were analyzed by Shimadzu LCMS-2020, where chromatographic column was Skim-psck GIST 5 µm C18 2.1*[…]; mobile phase A was water and mobile phase B was methanol; and flow rate was 0.3 mL/min. The gradient of B was as the following: 0 min: 10%; 0-1.0 min: 10%; 1.0-2.5 min: 95%; 3.0-4.0 min: 95%; 4.0-4.1 min: 10%; 4.1-6.0 min: 10%.
The relationship between the concentration and peak area of the standard sample was ploted into a standard curve, and the concentration of the sample to be tested was calibrated using this standard curve. Compound solubility = concentration of the sample to be tested × 10 [formula]

The target in data set [5] is TYK2 (Homo sapiens, UniProt P29597). The data set can be described thus: experiment of inhibiting kinase activity, TYK2. The format is biochemical. The settings on record: read-out: inhibition rate TYK2. Here is the method:
as §1

For data set [6], the target named is JAK1 (Homo sapiens, UniProt P23458). The data set can be described thus: experiment of inhibiting kinase activity (Caliper mobility shift assay), JAK1. Format: biochemical. The settings on record: read-out: inhibition rate JAK1. The procedure, abridged:
as §2

For data set [7], the target named is JAK2 (Homo sapiens, UniProt O60674). The data set can be described thus: experiment of inhibiting kinase activity (Caliper mobility shift assay), JAK2. Format: biochemical. Particulars: read-out: inhibition rate JAK2; for inhibition at 0.01 µM: at 10 nM. In short, it runs like this: as §2
Sequence of JAK2 (O60674 whole entry): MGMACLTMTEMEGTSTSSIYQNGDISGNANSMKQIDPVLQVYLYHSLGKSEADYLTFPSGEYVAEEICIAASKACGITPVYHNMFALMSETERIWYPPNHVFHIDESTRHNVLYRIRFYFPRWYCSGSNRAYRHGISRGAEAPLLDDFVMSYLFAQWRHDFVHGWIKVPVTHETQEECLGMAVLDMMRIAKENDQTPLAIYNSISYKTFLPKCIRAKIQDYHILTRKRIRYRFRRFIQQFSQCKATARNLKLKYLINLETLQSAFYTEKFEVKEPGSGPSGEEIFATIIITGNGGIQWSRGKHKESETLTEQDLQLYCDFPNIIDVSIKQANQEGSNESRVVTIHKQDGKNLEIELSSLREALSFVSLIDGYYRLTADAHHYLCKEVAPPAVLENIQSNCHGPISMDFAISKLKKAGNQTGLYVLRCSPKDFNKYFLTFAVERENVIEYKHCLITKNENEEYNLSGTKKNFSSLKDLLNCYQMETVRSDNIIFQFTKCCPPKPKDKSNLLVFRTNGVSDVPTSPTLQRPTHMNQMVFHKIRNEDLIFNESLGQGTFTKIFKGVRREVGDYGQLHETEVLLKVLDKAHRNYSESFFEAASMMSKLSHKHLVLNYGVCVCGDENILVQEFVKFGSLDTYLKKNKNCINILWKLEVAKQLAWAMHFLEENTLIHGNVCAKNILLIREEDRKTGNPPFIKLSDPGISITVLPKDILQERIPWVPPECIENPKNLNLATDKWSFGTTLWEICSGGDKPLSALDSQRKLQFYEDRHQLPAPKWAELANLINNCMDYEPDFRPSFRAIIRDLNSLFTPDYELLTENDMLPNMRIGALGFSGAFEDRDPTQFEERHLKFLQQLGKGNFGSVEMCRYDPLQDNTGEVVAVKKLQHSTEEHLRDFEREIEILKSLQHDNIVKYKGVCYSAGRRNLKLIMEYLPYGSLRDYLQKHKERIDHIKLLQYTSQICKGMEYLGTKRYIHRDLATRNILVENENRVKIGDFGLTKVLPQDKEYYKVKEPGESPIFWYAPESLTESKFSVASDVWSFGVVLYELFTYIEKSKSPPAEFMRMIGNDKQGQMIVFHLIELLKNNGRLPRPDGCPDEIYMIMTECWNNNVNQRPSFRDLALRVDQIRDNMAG
For data set [8], the target named is T2, LRRK2 (Homo sapiens, UniProt Q5S007). Kind of data set: experiment of inhibiting kinase activity, LRRK2. The settings on record: read-out: inhibition rate LRRK2; for inhibition at 0.01 µM: at 10 nM. The format is biochemical. The procedure: as §1
T2 sequence (Q5S007 whole entry): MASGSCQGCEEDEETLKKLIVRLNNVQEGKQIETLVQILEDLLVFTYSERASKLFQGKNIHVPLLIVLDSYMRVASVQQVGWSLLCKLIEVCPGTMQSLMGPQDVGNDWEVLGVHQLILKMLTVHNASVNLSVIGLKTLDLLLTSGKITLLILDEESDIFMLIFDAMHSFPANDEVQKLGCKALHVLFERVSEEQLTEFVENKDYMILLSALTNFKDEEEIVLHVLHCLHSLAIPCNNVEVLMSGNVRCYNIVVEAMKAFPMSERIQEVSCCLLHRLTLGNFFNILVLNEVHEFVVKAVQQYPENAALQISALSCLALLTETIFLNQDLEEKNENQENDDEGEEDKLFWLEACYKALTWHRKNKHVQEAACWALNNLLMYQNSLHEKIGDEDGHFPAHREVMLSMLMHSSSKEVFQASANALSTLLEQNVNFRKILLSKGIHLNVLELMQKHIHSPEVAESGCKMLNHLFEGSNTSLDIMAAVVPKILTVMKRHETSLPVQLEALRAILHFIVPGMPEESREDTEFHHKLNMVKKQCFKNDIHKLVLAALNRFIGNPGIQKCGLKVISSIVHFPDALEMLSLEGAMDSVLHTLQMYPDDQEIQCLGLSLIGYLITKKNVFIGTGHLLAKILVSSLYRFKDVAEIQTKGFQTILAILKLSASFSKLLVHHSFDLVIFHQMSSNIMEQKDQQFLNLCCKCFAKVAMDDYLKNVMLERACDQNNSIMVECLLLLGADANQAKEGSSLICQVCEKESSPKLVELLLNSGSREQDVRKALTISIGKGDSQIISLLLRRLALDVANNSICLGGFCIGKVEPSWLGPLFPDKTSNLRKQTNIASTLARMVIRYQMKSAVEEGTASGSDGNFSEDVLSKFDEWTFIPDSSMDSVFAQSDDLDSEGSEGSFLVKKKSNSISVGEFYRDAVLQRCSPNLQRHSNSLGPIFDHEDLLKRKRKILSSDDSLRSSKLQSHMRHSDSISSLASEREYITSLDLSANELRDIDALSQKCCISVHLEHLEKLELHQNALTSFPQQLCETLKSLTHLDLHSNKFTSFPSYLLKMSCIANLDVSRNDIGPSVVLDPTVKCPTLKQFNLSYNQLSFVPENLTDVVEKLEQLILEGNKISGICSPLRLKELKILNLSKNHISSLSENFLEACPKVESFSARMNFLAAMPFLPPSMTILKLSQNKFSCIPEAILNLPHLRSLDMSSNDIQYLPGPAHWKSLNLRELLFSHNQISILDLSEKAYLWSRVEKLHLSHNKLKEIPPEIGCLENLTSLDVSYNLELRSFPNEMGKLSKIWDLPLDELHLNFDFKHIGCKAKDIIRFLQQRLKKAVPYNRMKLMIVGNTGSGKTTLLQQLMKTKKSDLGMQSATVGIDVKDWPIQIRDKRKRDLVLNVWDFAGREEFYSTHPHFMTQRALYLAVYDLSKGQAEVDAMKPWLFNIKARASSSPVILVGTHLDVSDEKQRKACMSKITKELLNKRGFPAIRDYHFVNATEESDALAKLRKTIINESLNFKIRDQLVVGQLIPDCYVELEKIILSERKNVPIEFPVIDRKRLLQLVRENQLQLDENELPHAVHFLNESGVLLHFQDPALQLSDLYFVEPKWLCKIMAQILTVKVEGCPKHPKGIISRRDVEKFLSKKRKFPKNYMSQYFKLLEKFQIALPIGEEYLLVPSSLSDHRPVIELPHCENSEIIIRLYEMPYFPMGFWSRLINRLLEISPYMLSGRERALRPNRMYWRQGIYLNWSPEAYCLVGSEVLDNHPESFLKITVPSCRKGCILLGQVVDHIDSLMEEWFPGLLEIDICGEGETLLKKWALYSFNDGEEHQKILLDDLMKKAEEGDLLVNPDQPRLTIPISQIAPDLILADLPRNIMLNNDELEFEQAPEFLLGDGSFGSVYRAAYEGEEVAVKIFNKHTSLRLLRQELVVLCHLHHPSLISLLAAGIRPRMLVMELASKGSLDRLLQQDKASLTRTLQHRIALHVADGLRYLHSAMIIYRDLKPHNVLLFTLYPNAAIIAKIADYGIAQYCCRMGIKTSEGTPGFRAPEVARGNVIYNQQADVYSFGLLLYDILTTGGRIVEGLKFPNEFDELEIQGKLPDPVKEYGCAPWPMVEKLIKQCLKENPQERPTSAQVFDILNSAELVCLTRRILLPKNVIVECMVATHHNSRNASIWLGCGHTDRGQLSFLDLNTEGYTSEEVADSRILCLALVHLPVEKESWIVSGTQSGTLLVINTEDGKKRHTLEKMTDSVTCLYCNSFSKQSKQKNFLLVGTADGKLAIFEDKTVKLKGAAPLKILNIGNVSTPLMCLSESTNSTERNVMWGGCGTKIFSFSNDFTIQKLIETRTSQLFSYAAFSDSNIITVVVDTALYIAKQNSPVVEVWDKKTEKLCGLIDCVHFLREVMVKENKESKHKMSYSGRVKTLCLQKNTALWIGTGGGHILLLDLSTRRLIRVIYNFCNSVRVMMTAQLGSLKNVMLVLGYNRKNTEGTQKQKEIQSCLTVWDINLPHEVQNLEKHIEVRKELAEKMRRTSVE
Data set [9] deals with T2, LRRK2. The data set can be described thus: experiment of inhibiting LRRK2 kinase activity (ADP-Glo method). The format is biochemical. Particulars: Table 4. The procedure: The inhibitory effect of the compounds on the activity of LRRK2 kinase was detected by ADP-Glo method. The diluted solutions of the compounds were transfered to a 384-well plate (784075, Greiner), the plate was sealed and centrifuged at a speed of 1000 g for 1 minute. A kinase solution at 2-fold final concentration was prepared with 1×kinase buffer, 2.5 µl of the kinase solution with 2-fold final concentration was added to the wells, the plate was centrifuged at 1000 g for 30 seconds, and left at room temperature for 10 minutes. A mixed solution of ATP and kinase substrate at 2-fold final concentration was prepared with 1×kinase buffer, and 2.5 µL of mixed solution of ATP and substrate at 2-fold final concentration was added to start the reaction. The plate was centrifuged at 1000 g for 30 seconds, sealed and left at room temperature for 2 hours. 4 µL of ADP-Glo reagent was added and incubated at room temperature for 40 minutes; 8 µL kinase detection reagent was added and incubated at room temperature for another 40 minutes. The luminescence signal value was detected on Envision 2104 microplate reader. The conversion inhibition rate%=100-(compound signal value-positive control signal value)/(blank control signal value-positive control signal value)×100.
The IC50 was calculated with GraphPad 6.0 and the dose-responsive curve of the compounds was plotted as follows: y=Bottom+(Top-Bottom)/(1+10^((logic50-x)×hillslope)), where x was logarithm of inhibitor concentration; and y was % inhibition rate.

The structures appear in SMILES notation. In brackets after ≈: the same amount, converted by molar mass.

Sequence of TYK2 (P29597 whole entry): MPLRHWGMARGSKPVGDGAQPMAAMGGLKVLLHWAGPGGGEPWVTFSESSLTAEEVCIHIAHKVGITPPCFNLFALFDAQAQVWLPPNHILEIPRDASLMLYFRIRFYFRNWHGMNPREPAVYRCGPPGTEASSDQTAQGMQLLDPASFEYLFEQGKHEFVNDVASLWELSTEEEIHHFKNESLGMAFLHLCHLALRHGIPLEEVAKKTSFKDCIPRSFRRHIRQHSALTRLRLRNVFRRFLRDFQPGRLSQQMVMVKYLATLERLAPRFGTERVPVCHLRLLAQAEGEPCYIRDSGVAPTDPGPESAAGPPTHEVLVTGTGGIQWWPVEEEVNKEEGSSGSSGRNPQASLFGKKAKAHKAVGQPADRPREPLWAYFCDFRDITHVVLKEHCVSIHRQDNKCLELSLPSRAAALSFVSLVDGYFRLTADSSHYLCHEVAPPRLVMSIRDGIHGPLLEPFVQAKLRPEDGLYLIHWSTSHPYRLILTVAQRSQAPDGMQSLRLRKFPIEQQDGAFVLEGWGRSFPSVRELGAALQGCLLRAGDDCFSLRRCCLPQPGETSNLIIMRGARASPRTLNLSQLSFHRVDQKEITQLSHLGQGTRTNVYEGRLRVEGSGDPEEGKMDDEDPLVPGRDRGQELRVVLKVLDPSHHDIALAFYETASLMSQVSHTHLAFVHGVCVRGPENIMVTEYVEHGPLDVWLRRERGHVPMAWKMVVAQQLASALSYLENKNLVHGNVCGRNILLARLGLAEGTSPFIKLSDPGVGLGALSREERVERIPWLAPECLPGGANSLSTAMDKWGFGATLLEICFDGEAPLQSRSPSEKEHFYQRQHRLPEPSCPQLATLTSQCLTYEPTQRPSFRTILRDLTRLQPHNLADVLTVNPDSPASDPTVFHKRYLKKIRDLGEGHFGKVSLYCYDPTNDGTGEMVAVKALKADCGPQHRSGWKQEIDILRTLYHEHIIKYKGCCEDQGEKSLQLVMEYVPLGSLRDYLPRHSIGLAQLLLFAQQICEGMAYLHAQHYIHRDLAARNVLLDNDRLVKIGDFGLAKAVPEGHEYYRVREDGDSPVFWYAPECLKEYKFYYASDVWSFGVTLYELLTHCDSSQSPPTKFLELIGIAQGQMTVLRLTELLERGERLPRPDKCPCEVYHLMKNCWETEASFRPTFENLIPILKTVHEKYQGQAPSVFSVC

As for `CC(C)S(=O)(=O)c1ccccc1Nc1nc(Nc2ccc3c(c2)OCCOCCNCCO3)nc2[nH]ccc12` [Example 97, N^2-(2,3,6,7,8,9-hexahydro-5H-benzo[b][1,4,7]trioxa[10]azacyclododecan-13-yl)-N^4-(2-(isopropylsulfonyl)phenyl)-7H-pyrrolo[2,3-d]pyrimidin-2,4-diamine], the inhibition at 0.1 µM in [1] is 40 to 79%; in data set [2] (at 100 nM) it was greater than 80%; in data set [3] (at 100 nM) it was greater than 80%; in [5] (at 100 nM), 40 to 79%; in data set [6] (at 100 nM), 40 to 79%; in data set [7] (at 100 nM) it was greater than 80%. For the same compound, the inhibition at 0.1 µM in data set [8] (at 100 nM) is greater than 80%. Further, the inhibition at 0.01 µM in [2] (at 10 nM) was 40 to 79%; in [3], 40 to 79%; in data set [7], greater than 80%; in data set [8], greater than 80%. In [4], this compound came in with a solubility at 1 h greater than 4330 µg/mL. This compound also displayed a solubility in [4] of 180 µg/mL (≈ 326 µM).

Turning to `CN1CCOc2ccc(Nc3ncc(C(F)(F)F)c(NCCP(C)(C)=O)n3)cc2OCC1` [Example 86, dimethyl(2-((2-((4-methyl-3,4,5,6-tetrahydro-2H-benzo[b][1,4,7]dioxazolin-9-yl)amino)-5-(trifluoromethyl)pyrimidin-4-yl)amino)ethyl)phosphine oxide], in [4], the solubility at 1 h was greater than 3830 µg/mL and the concentration in solution (solubility) was 688 µg/mL (≈ 1450 µM). This compound showed an IC50 in [9] of less than 100 nM.

As to `CN1CCOCCOc2cc(Nc3nc(-c4cnn([C@@H](CC#N)C5CCCC5)c4)c4cc[nH]c4n3)ccc2OCC1` [Example 75, (S)-3-cyclopentyl-3-(4-(2-((7-methyl-2,3,6,7,8,9-hexahydro-5H-benzo[b][1,4,7]trioxa[10]azacyclododecan-13-yl)amino)-7H-pyrrolo[2,3-d]pyrimidin-4-yl)-1H-pyrazol-1-yl) propionitrile], the inhibition at 0.01 µM in data set [3], in data set [5] (at 10 nM), in data set [6] (at 10 nM), in [7] and in [8] was greater than 80% throughout. Further, the solubility at 1 h in data set [4] was greater than 3500 µg/mL. Moreover, the concentration in solution in data set [4] (solubility) came to 120 µg/mL (≈ 216 µM).
